Experiments:
MDA-MB-231 tumors [1] = test: Comparison of three rescue reagents (Example 32)
Protocol: To evaluate whether mice with FITC-CAR-T therapy related sCRS can be rescued by using competitors which may displace EC17 from either FITC-CAR-T or FR+ tumor cells, 49 NSG mice bearing MDA-MB-231 tumors (150-250 mm3) were administered with excess FITC-CAR-T cells (8 million), 36 of them were then dosed with 500 nmol/kg EC17 48 hours post CAR-T administration, 6 of them were not dosed with EC17 and were used as “No EC17” control, and 7 of them were dosed with 260 umol/kg sodium fluorescein (no EC17 but Fluorescein) to test its toxicity. […] Each group was i.v. injected with 10 umol/kg of Leucovorin, or 10 umol/kg folic acid, or 260 umol/kg sodium fluorescein, or nothing as an un-rescued control. […] Mouse body weight changes were also monitored as the indication of toxicity. […] To evaluate whether the rescue injections affect the anti-tumor activity of FITC-CAR-T cells, these mice were dosed with 500 nmol/kg EC17 twice per week (days 9, 11, 15, 18, 22, 25, etc.) and the tumor size was monitored.

FR+ MDA-MB-231 tumors = test: FITC-CAR-T toxicity and spleen size in MDA-MB-231 s.c. model (Example 37); type: in vivo, mice
Protocol: The evaluation of FITC-CAR-T proliferation and related toxicity in both naïve mice and mice bearing FR+ tumor xenografts was tested. To evaluate whether FITC-CAR-T proliferation in vivo is dependent on the co-existence of the bridge (e.g. EC17) and the tumor antigen (e.g. folate receptor), FITC-CAR-T proliferation in vivo was compared in naïve mice and mice bearing FR+ tumor xenografts, either with or without EC17. 5-8 million CAR-T cells (as indicated in FIGS. 42 and 43) were administered (i.v.) into naïve mice without tumors and mice bearing FR+ tumor xenografts (80-200 mm3). 500 nmol/kg EC17 was dosed 4 hours before and three times per week post CAR-T administration, if desired. Mice were monitored for body weight changes and CAR-T cell count in blood circulation; some mice were also euthanized weekly to evaluate organs. […] CAR-T cell count in blood samples was also compared to evaluate CAR-T proliferation. […] Since the enlargement of spleen size is another indicator for CAR-T proliferation in vivo, spleen size was also measured as shown in FIG. 43B.
For FIG. 42, the MDA-MB-231 s.c. model was used. For FIG. 43A, the HEK-FRa s.c. xenograft model was used. For FIG. 43B, the MDA-MB-231 s.c. model was used.

[2] = system: naïve mice without tumors; test: CAR-T cells with EC17 in naïve mice without tumors (Example 25); type: in vivo; settings: 500 nmoles/kg three times per week
Protocol: Five million CAR-T cells were injected (i.v.) into naïve mice without tumors. 500 nmoles/kg EC17 was administrated three times per week. Mice were monitored for 5 weeks, and some were euthanized every week to evaluate organs.

MDA-MB-231 = test: CAR-T and EC17 therapy-related toxicity versus tumor size (Example 46); type: in vivo, NSG mice
Protocol: To explore whether CAR-T therapy related toxicity is dependent on tumor load, NSG mice were s.c. implanted with MDA-MB-231. Ten mice with different tumor sizes ranging between 150-900 mm^3 were selected for this study. For the CAR-T cells, 10.5 million GFP+FITC-CAR-T cells were i.v. injected followed by 500 nmol/kg EC17 administration 48 hours later (FIG. 71A). Body weights of mice were compared between before CAR-T injection and 18 hours post EC17 administration. […] With higher tumor burden, mice lost more body weight after CAR-T and EC17 treatment. […] Plasma samples were separated immediately and stored at −20° C. until the analysis of cytokine levels using a human cytokine detection kit (Biolegend). […] With higher tumor burden, more IL-6 was produced after CAR-T and EC17 treatment. IL-6 has been widely reported to be the predicting biomarker for severe cytokine release syndrome in human patients with liquid tumors when they are treated with conventional CAR-T therapy.

[3] = system: anti-fluorescein scFv on CAR T cells; test: Competitive binding assay against FITC-Alexa647 on CAR T cells; settings: 1 μM competing ligand versus FITC-Alexa647 10 nM
Protocol: To examine the ability of bridge molecules to bind anti-fluorescein scFv on CAR T cells, a competitive binding assay was developed. Measurement of the fluorescein signal from CAR T cell bound bridges could not be used due to the overlap of its fluorescence with that of the GFP expressing CAR T cells. For this purpose, FITC-Alexa647 (10 nM) was allowed to bind anti-fluorescein CAR T cells in the absence or presence of excess (1 μM) competing ligand (i.e. FITC-folate, FITC-DUPA, FITC-CA9) for 1 h at room temperature. After incubation, anti-fluorescein CAR T cells were washed 3× with PBS to remove unbounded FITC-Alexa647, and the washed cells were analyzed for Alexa647 fluorescence by flow cytometry.
Fluorescein-folate (FITC-folate) and fluorescein-PSMA (FITC-DUPA) were synthesized as previously described. To examine the ability of these bridge molecules to bind anti-fluorescein scFv on CAR T cells, a competitive binding assay had to be developed, because measurement of the fluorescein signal from CAR T cell bound bridge could not be used due to the overlap of its fluorescence with that of the GFP expressing CAR T cells. For this purpose, FITC-Alexa647 (10 nM) was allowed to bind anti-fluorescein CAR T cells in the absence or presence of excess (1 μM) competing ligand (i.e. FITC-folate) for 1 h at room temperature. After incubation, anti-fluorescein CAR T cells were washed 3× with PBS to remove unbounded FITC-Alexa647, and the washed cells were analyzed for Alexa647 fluorescence by flow cytometry. For analysis of FITC-folate to binding to folate receptor, FR positive KB cells were incubated with FITC-folate (100 nM) in the absence or presence of excess (10 μM) free folate (i.e. as a competitive ligand). After washing samples with PBS (3 times), samples were analyzed by flow cytometry for fluorescein-folate binding.

MDA-MB-231 tumors [4] = test: EC17 pre-painting combined with delayed second EC17 dose (Example 30); type: in vivo, mice
Protocol: FITC-CAR-T related toxicity (e.g. sCRS) can be reduced by the combination of EC17 pre-painting and the delay of EC17 dosing post CAR-T administration. To explore strategies to control therapy-related toxicity, the combination of the EC17 pre-painting and EC17 dosing schedule optimization was evaluated. Mice bearing MDA-MB-231 tumors (100-200 mm3) were divided into three groups. Mice in group #1 (no EC17 pre-painting) were administered with 8 million FITC-CAR-T cells through the tail vein, and 500 nmol/kg EC17 was then dosed as a single dose per week (at days 2, 9, 16, etc.) post CAR-T administration. Mice in group #2 (EC17 4 hour pre-painting) were pre-painted with 500 nmol/kg EC17 4 hours before the administration of 8 million CAR-T cells, and 500 nmol/kg EC17 was then dosed as a single dose per week post CAR-T administration. Mice in group #3 (EC17 4 hour pre-painting+delayed second EC17 dose) were also pre-painted with 500 nmol/kg EC17 4 hours before the administration of 8 million CAR-T cells, but the second dose of 500 nmol/kg EC17 was postponed until 7 days after CAR-T administration, and the single dose per week schedule of EC17 dosing was then followed. Three days after CAR-T administration, mice in the three groups were evaluated by visual observation.

Row | SMILES | body weight loss compared to other rescue groups (MDA-MB-231 tumors [1]; 260 umol/kg) | order of sCRS severity (from worst to least) (MDA-MB-231 tumors [1]; 10 hours after rescue, Leucovorin 10, folic acid 10, sodium fluorescein 260 umol/kg) | mice with a tiny tumor left (MDA-MB-231 tumors [1]; day 36 post CAR T injection) | spleen size (FR+ MDA-MB-231 tumors; 500 nmol/kg three times per week) | body weight (FR+ MDA-MB-231 tumors; EC17 three times per week) | CAR-T cell proliferation (blood count, spleen size) [2] | body weight ([2]; 5 million CAR-T, 5 weeks) | cytokine release syndrome grade (MDA-MB-231; 18 hours after 500 nmol/kg, 10.5 million CAR-T) [grade] | body weight changes (MDA-MB-231; tumors 150-900 mm^3) | production of IL-6 (MDA-MB-231; tumors 150-900 mm^3) | binding to CAR-expressing T cells [3] | binding to CAR-expressing T cells ([3]; listed as fluorescein-folate) | anti-tumor outcome (MDA-MB-231 tumors [4]; all three groups) | sCRS by visual observation (MDA-MB-231 tumors [4]; group #1 no pre-painting, three days after CAR-T) | sCRS by visual observation (MDA-MB-231 tumors [4]; group #2 EC17 4 hour pre-painting) | sCRS by visual observation (MDA-MB-231 tumors [4]; group #3 EC17 4 hour pre-painting + delayed second EC17 dose)
1 | O=C([O-])c1ccccc1-c1c2ccc(=O)cc-2oc2cc([O-])ccc12.[Na+].[Na+] [sodium fluorescein] | least body weight loss | no rescue group>leucovorin rescue group>folic acid rescue group>sodium fluorescein rescue group>no EC17 group | 2 out of 9 |  |  |  |  |  |  |  |  |  |  |  |  | 
2 | Nc1nc2ncc(CNc3ccc(C(=O)NC(CCC(=O)NCCNC(=S)Nc4ccc(-c5c6ccc(=O)cc-6oc6cc(O)ccc56)c(C(=O)O)c4)C(=O)O)cc3)nc2c(=O)[nH]1 (stereo not shown) [EC17, FITC-Folate] |  |  |  | enlarged spleens | body weight loss in the first 10 days | did not proliferate | No apparent body weight loss | 2 | tumor size dependent | tumor size dependent | able to bind to the CAR-expressing T cells | competitively block FITC-Alexa 647 binding | complete responses | the worst sCRS | sCRS but less severe | didn't show sCRS

Reference: patent US11759480B2, “Compositions and methods for CAR T cell therapy” (ENDOCYTE, INC., priority 2017, dated 2023)
